From publication PMC2852069 (Indian Journal of Pharmaceutical Sciences, 2008)
≈ marks a conversion by molar mass, not a printed value.

How the values were obtained:
SARS-CoV = test: microbe, parasite or virus in culture; format: cell-based, Severe Acute Respiratory Syndrome corona virus (SARS-CoV); conditions: for EC50: Severe acute respiratory syndrome coronavirus, Vero C1008, 72 h, read-out: EC50 (50% effective concentration required to reduce virus-induced cytopathicity by 50%)
[1] = test system: HCV RNA (HCV replicon in Huh 5-2 cells); test: microbe, parasite or virus in culture; format: cell-based, Hepatitis C Virus; conditions: for EC50: Hepatitis C virus, Huh-5-2, 72 h, read-out: EC50 HCV RNA
in vitro [2] = conditions: African green monkey
in vitro [3] = conditions: human, CC50 Cell growth
Huh 5-2 cells = conditions: human

Row | SMILES | Maximum protection (%) (at 125 μg/ml) (SARS-CoV) | EC50 (SARS-CoV) [µg/mL] | EC50 [1] [µg/mL] | CC50 (in vitro [2]) [µg/mL] | CC50 (in vitro [3]) [µg/mL] | concentration without toxicity (Huh 5-2 cells) | EC50 HCV RNA [1] [µg/mL] | CC50 Cell growth (Huh 5-2 cells) [µg/mL]
1 | Cc1cc(C)nc(NS(=O)(=O)c2ccc(/N=C3\C(=O)Nc4ccc(Cl)cc43)cc2)n1 [SPIII-5Cl] | 10 | > 125 | > 50 | > 125 | > 50 |  |  | 
2 | Cc1cc(C)nc(NS(=O)(=O)c2ccc(/N=C3\C(=O)Nc4ccc(F)cc43)cc2)n1 [SPIII-5F] | 45 | > 125 | 6 (≈ 14.1 µM) | > 125 | 42 (≈ 98.7 µM) | up to 42 μg/ml |  | 
3 | Cc1cc(C)nc(NS(=O)(=O)c2ccc(/N=C3\C(=O)Nc4ccccc43)cc2)n1 [SPIII-5H, 4-[(1,2-dihydro-2-oxo-3H-indol-3-ylidene)amino]-N(4,6-dimethyl-2-pyrimidiny)benzene sulphonamide] | 22 | > 125 | 17 (≈ 41.7 µM) | > 125 | 42 (≈ 103 µM) |  | 19 (≈ 46.6 µM) | >50
4 | CC(=O)N1C(=O)/C(=N\c2ccc(S(=O)(=O)Nc3nc(C)cc(C)n3)cc2)c2ccccc21 [SPIII-NA] | 12 | > 125 | > 50 | > 125 | > 50 |  |  | 
5 | Cc1cc(C)nc(NS(=O)(=O)c2ccc(/N=C3\C(=O)Nc4ccc(Br)cc43)cc2)n1 [SPIII-5Br] | 2 | > 125 | 19 (≈ 39.1 µM) | > 125 | 42 (≈ 86.4 µM) |  | 17 (≈ 35 µM) | >50
6 | Cc1ccc2c(c1)/C(=N/c1ccc(S(=O)(=O)Nc3nc(C)cc(C)n3)cc1)C(=O)N2 [SPIII-5Me] | 12 | > 125 | > 50 | > 125 | > 50 |  |  | 
